Data on two compounds can be found in patent US11458138B2 (Novartis AG, priority 2017, dated 2022).

The subject of test [1] is corneal endothelial cell population. Briefly: Quantitative RT-PCR of expanded corneal endothelial cell population. In kind it is cell-based, human. From the text: (2) The cells express one or more of Collagen 8a2, AQP1 (aquaporin 1) and SLC4A11 (Solute Carrier Family 4 Member 11). […] The expression of Collagen 8a2, AQP1 or SLC4A11 may be estimated by standard techniques known in the art, such as for example immunohistochemistry, quantitative RT-PCR or by FACS analysis.
The expression of RPE65 and CD31 may be estimated by standard techniques known in the art, such as for example quantitative RT-PCR, immunohistochemistry or FACS analysis.

In test [2] the test system is human corneal endothelial cells (CECs). The test is described as follows: CEC population expansion, immunohistochemical observation of cellular morphology (ZO-1). The conditions noted are these: 10 micromolar, 10 days. Format: cell-based. The procedure: Cells were cultured at 37° C. in 5% CO2 for 10 days.
In order to observe that the expanded cell population has the required cellular morphology for use in vivo, the ability of the cells to form tight junctions was measured by immunohistochemistry as follows. Cell cultures were fixed with 4% PFA for 20 minutes, permeabilized and blocked in a blocking solution of 0.3% Triton X-100 (Sigma-Aldrich) and 3% donkey serum in PBS for 30 minutes. Cells were then labeled with primary antibody in the blocking solution for 12 hours at 4° C. Primary antibody used was ZO-1 from Invitrogen. Samples were washed in PBS three times and donkey-raised secondary antibody Alexa Fluor 488 (Molecular Probes) at 1:500 dilution were applied for 30 minutes at room temperature. Cells were washed three times in PBS and nuclei (DNA) were stained with Sytox Orange (567 nm, Life Technologies). […] Fluorescence was observed using a Zeiss LSM 880 confocal microscope.

Test [3] concerns Corneal Endothelial Cells (CECs). The test is described as follows: ZO-1 immunolabelling of expanded CECs. Format: cell-based, human. Particulars: vs vehicle DMSO. The text has this: CECs proliferated in the presence of the vehicle alone (DMSO) show signs of polymegatism characteristic of dysfunctional CECs (FIG. 18a).
(2) The cells are able to form tight junctions. This may be checked by a standard technique known in the art, immunofluorescence staining of tight-junction marker Zonula Occludens-1 (ZO-1).
(3) The cells are able to be regularly arranged in the cell layer. This may be checked by a standard technique known in the art, immunofluorescence staining of tight-junction marker Zonula Occludens-1 (ZO-1).

The test system of test [4] is Phospho-YAP (SER127) in liver tissue. The test is described as follows: In vivo treatment of mice: Phospho-YAP (pYAP) HTRF in liver tissue. Particulars: mouse liver, single oral dose 10 mg/kg. The procedure: (§1) All animal studies were carried out in accordance with federal, state, local and institutional guidelines governing the use of laboratory animals in research. Male C57BL/6J mice (age 8-10 weeks) were purchased from Jackson Labs (Bar Harbor, Me.). Example 46 was formulated for oral dosing at 3 mg/ml, and Example 261 at 1 mg/ml, in a suspension of methylcellulose:Tween80:Water (0.5:0.5:99). Single oral dose of either compound was at 10 mL/kg body weight. Blood and liver tissue were collected under deep anesthesia (isoflurane) at either 2 h post-dose (for mRNA analysis) or 24 h post-dose (for immunohistochemistry).
Frozen liver tissue was transferred into a Lysing Matrix tube (MP, cat #6913-500) with a 1:50 solution of Protease inhibitor (Sigma-Aldrich, cat #P8340) in Phosphosafe extraction buffer (Novagen, cat #71296-3) and homogenized using the FastPrep-24 (MP biomedicals). […] The protein concentration was measured using the BCA Protein Assay Kit (Pierce cat. 23227) following the manufacturer's protocol. […] The same input quantity was used for each sample, based on total protein content (30-60 ug per sample per well). […] Plates were read on an EnVision (PerkinElmer) with emission wavelengths of 665 nm & 620 nm. The HTRF signal ratio was calculated as Signal(665 nm)/Signal(620 nm))×10000 as specified in the manufacturer's protocol. […]

A further test has as its system CTGF mRNA in liver. Briefly: In vivo treatment of mice: quantitative RT-PCR, CTGF. Particulars: mouse liver, single oral dose 10 mg/kg, 2 h post-dose, relative to vehicle, mean+/-SEM. As to the method: as §1
(§2) Total liver RNA was isolated from tissue after storage in RNAlater reagent (Qiagen), using a TRIzol method according to the manufacturer's instructions (Life Technologies). Relative mRNA abundance was measured by quantitative RT-PCR using TaqMan gene expression assays and reagents according to standard protocols (Applied Biosystems). Mouse probes for YAP target genes were CTGF (Mm01192933_g1) and Cyr61 (Mm00487498_m1). […] Relative changes in mRNA were calculated by the ΔΔCt method. Changes in gene expression with compound treatment are expressed as fold-change relative to the vehicle group.

Another test deals with Cyr61 mRNA in liver. Briefly: In vivo treatment of mice: quantitative RT-PCR, Cyr61. The conditions noted are these: mouse liver, single oral dose 10 mg/kg, 2 h post-dose, relative to vehicle, mean+/-SEM. As to the method:
as §1, §2

Take `CC(C)(O)CC(C)(C)Nc1nc(-c2ccncc2)nc2cnccc12` [Example 49, 2,4-dimethyl-4-{[2-(pyridin-4-yl)pyrido[3,4-d]pyrimidin-4-yl]amino}pentan-2-ol]: in test [1], the “expression of Collagen 8a2, AQP1, SLc4A11 by quantitative RT-PCR” value was “express genes normally expressed by corneal endothelial cells in vivo”; the “expression of RPE65 and CD31 by quantitative RT-PCR” value is “do not express markers of other epithelia present in the eye”. Also, in test [2], the “CEC morphology and tight junctions (ZO-1)” value is “retained a normal corneal endothelial cell morphology and the ability to form tight junctions”. Also, the “tight junctions, cell size and morphology of CECs (ZO-1)” value in test [3] was “form tight junctions, an endothelial structure and retain a normal cell size and morphology”.

On to `CC(C)(C)Nc1cc(-c2ccncc2)nc2cnccc12` [Example 261, N-(tert-butyl)-2-(pyridin-4-yl)-1,7-naphthyridin-4-amine], for which the “pYAP (% of control)” value in test [4] was 60 % of control. In the test with CTGF mRNA in liver, the “CTGF mRNA (fold-change)” value was 2.5 (+/−0.2) fold-change. In the test on Cyr61 mRNA in liver, the “Cyr61 mRNA (fold-change)” value was 3.9 (+/−0.6) fold-change.
